Four molecules from patent US10093713B2, “GIP-GLP-1 dual agonist compounds and methods” (priority 2013, dated 2018) can be followed below.

The target in one series is T1, human GLP-1 R (Homo sapiens, UniProt P43220).
T1 construct: expressed in transfected cells
The series can be described thus: Human GLP-1 receptor (GLP-1 R) activity assay, cAMP induction (AlphaScreen) in HEK293 cells. The format is cell-based. The procedure, abridged:
(§1)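 Stable HEK293 clones expressing human GIP R or GLP-1 R, seeded 1 day before; cells washed in Tyrode's buffer (10 mM HEPES, pH 7.4), stimulated, then lysed. cAMP measured by AlphaScreen bead competition (1 h, room temperature, dark). EC50 = concentration giving half-maximal cAMP elevation, from curves of absolute cAMP (nM) vs log concentration.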
In general terms: Bead proximity is the source of the signal in Alpha formats.

A short description of series [1]: Pharmacokinetics of selected compounds in mice. The format is in vivo, C57BL/6J mice. Conditions: male, C57BL/6J, mouse, plasma; for bioavailability: subcutaneous, AUCinf (s.c.)/AUCinf (i.v.)x100, values marked * capped to 100%. The method, then:
Pharmacokinetics of Selected Compounds in Mice
C57BL/6J mice (males with a body weight of approximately 25 g) were given either a single subcutaneous (s.c.) bolus or a single intravenous (i.v.) bolus of each peptide to be tested.
Following s.c. administration of the selected compounds (50, 100 or 200 nmol/kg), blood samples were drawn at 8 (eight) timepoints up to 72 hours post-dose. Following i.v. administration of the selected compounds (50, 100 or 200 nmol/kg), blood samples were drawn at 8 (eight) timepoints up to 48 hours post-dose. Blood samples were drawn by sublingual bleeding. The dosing vehicle was a phosphate buffer containing mannitol (pH 7.5).
At each sampling time point, samples from two mice were drawn, i.e. 16 mice were included for each compound and each administration route. The mice were euthanized immediately after blood sampling by cervical dislocation. Plasma samples were analyzed after solid phase extraction (SPE) or protein precipitation followed by liquid chromatography mass spectrometry (LC-MS/MS). Mean plasma concentrations were used for calculation of the pharmacokinetic parameters using the non-compartmental approach in Phoenix WinNonlin 6.3. Plasma terminal elimination half-life (T½) was determined as […] where λz is the magnitude of the slope of the log linear regression of the log concentration versus time profile during the terminal phase. Bioavailability was determined as AUCinf (s.c.)/AUCinf (i.v.)×100, where AUCinf is the area under the plasma concentration−time curve extrapolated to infinity (AUCinf=AUClast+Clast/λz, where Clast is the last observed plasma concentration). Tmax is the post-dose time where the maximal plasma concentration was observed.

The next series has as its target T2, human GIP R (Homo sapiens, UniProt P48546).
T2 construct: expressed in transfected cells
T2 sequence (P48546 22-466): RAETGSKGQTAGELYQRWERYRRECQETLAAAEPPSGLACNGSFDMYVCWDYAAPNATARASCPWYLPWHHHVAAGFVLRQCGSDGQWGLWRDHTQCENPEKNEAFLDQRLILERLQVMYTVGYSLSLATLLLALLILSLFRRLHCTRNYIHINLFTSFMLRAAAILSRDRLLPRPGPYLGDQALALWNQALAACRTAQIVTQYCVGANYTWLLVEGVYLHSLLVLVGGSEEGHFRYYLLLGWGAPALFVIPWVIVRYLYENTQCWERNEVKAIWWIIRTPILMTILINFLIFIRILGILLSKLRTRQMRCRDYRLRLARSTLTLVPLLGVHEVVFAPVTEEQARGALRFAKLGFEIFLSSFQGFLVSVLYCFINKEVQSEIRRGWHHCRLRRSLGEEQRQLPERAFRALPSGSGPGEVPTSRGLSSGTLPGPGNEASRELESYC
The experiment in a line: Human GIP receptor (GIP R) activity assay, cAMP induction (AlphaScreen) in HEK293 cells. It is filed as cell-based. Conditions: read-out: hGIP-R cAMP EC50 average value. The procedure, abridged: as §1

Setting [2] is: Table 2, HEK293 cells expressing human GLP-1 R, read-out: hGLP1-R cAMP EC50 average value.
Setting [3] is: Table 3, most comprehensive data, read-out: hGLP-1-R cAMP EC50 average value.
Setting [4] is: iv, single i.v. bolus, read-out: T½ terminal elimination half-life, i.v. (converted).
Setting [5] is: sc, single s.c. bolus, read-out: T½ terminal elimination half-life, s.c. (converted).
Where [6] appears, read: Table 2, HEK293 cells expressing human GIP R.
Where [7] appears, read: Table 3, most comprehensive data.

Read-outs that look alike come from different tables or passages of the source. *1 amine or outer side, *2 acyl side, *3 side chain or, on linkers, in order; H or OH if unused. Where a SMILES comes first, the peptide text is derived from it. Side-chain parts run from the residue outwards. [ ]: non-standard residue; d: D form. The star is where a group is joined. C20 diacid = O=C(O)CCCCCCCCCCCCCCCCCCC(=O)*; γGlu = O=C(O)[C@H](CCC(=O)[*:2])N[*:1]; AEEA = NCCOCCOCC(=O)O; Aib = CC(C)(N)C(=O)O

T1 sequence (P43220 24-463): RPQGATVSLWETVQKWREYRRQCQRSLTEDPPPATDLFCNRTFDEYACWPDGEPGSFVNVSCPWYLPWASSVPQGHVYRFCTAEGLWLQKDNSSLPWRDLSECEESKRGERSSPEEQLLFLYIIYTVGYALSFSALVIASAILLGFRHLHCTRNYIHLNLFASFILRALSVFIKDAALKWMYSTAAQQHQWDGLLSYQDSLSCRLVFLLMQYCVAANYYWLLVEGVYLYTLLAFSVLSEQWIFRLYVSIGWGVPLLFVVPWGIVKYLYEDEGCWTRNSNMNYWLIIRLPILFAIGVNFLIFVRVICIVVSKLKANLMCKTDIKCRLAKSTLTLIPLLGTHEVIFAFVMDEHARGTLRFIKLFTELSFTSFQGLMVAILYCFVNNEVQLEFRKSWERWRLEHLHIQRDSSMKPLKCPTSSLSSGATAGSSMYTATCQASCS

In general, EC50 refers to the concentration that produces a half-maximal response. Usually half-life stands for how long it takes for the measured level to halve. In general, bioavailability refers to dose-corrected exposure relative to a reference, in per cent. A high value points to good availability. A word on the Tmax: it is the time at which the peak concentration occurs. Consider `CC[C@H](C)[C@H](NC(=O)[C@H](CO)NC(=O)[C@H](CC(C)C)NC(=O)[C@H](CC(=O)O)NC(=O)[C@H](CO)NC(=O)[C@@H](NC(=O)[C@H](Cc1ccccc1)NC(=O)[C@@H](NC(=O)CNC(=O)[C@H](CCC(=O)O)NC(=O)C(C)(C)NC(=O)[C@@H](N)Cc1ccc(O)cc1)[C@@H](C)O)[C@@H](C)O)C(=O)N[C@@H](C)C(=O)N[C@@H](CC(C)C)C(=O)N[C@@H](CCC(=O)O)C(=O)N[C@@H](CCCCN)C(=O)N[C@@H](CCCCNC(=O)COCCOCCNC(=O)COCCOCCNC(=O)CC[C@H](NC(=O)CCCCCCCCCCCCCCCCCCC(=O)O)C(=O)O)C(=O)N[C@@H](C)C(=O)N[C@@H](CCC(N)=O)C(=O)N[C@@H](CCCNC(=N)N)C(=O)N[C@@H](C)C(=O)N[C@@H](Cc1ccccc1)C(=O)N[C@H](C(=O)N[C@@H](CCC(=O)O)C(=O)N[C@@H](Cc1c[nH]c2ccccc12)C(=O)N[C@@H](CC(C)C)C(=O)N[C@@H](CC(C)C)C(=O)N[C@@H](C)C(=O)N[C@@H](CCC(N)=O)C(=O)N[C@@H](CCCCN)C(N)=O)C(C)C` [Compound 28] (H-Y[Aib]EGTFTSDLSIALEKK([AEEA-AEEA-γGlu-C20 diacid])AQRAFVEWLLAQK-NH2), for which the figures for the EC50 on human GLP-1 R (setting [2]), at human GLP-1 R (setting [3]) and on human GIP R (setting [6]) were 0.017 nM, 0.015 nM and 0.024 nM, respectively. Moreover, the half-life in series [1] (setting [4]) was 13.6 h; in series [1] (setting [5]) it was 14.1 h. Besides, in series [1], the bioavailability amounted to 93%. In addition, the Tmax in series [1] (sc, single s.c. bolus) came to 2 h.

For `CC[C@H](C)[C@H](NC(=O)[C@H](CO)NC(=O)[C@H](Cc1ccc(O)cc1)NC(=O)[C@H](CC(=O)O)NC(=O)[C@H](CO)NC(=O)[C@@H](NC(=O)[C@H](Cc1ccccc1)NC(=O)[C@@H](NC(=O)CNC(=O)[C@H](CCC(=O)O)NC(=O)[C@@H](C)NC(=O)[C@@H](N)Cc1ccc(O)cc1)[C@@H](C)O)[C@@H](C)O)C(=O)N[C@@H](Cc1ccc(O)cc1)C(=O)N[C@@H](CC(C)C)C(=O)N[C@@H](CC(=O)O)C(=O)N[C@@H](CCCCN)C(=O)N[C@@H](CCCCNC(=O)COCCOCCNC(=O)COCCOCCNC(=O)CC[C@H](NC(=O)CCCCCCCCCCCCCCCCCCC(=O)O)C(=O)O)C(=O)N[C@@H](C)C(=O)N[C@@H](CCC(N)=O)C(=O)N[C@@H](CCCNC(=N)N)C(=O)N[C@@H](C)C(=O)N[C@@H](Cc1ccccc1)C(=O)N[C@H](C(=O)N[C@@H](CCC(=O)O)C(=O)N[C@@H](Cc1c[nH]c2ccccc12)C(=O)N[C@@H](CC(C)C)C(=O)N[C@@H](CC(C)C)C(=O)N[C@@H](C)C(=O)N[C@@H](CCC(N)=O)C(=O)NCC(=O)N1CCC[C@H]1C(=O)N[C@@H](CO)C(=O)N[C@@H](CO)C(=O)NCC(=O)N[C@@H](C)C(=O)N1CCC[C@H]1C(=O)N1CCC[C@H]1C(=O)N1CCC[C@H]1C(=O)N[C@@H](CO)C(N)=O)C(C)C` [Compound 30] (H-Y[dA]EGTFTSDYSIYLDKK([AEEA-AEEA-γGlu-C20 diacid])AQRAFVEWLLAQGPSSGAPPPS-NH2), the EC50 came out at 0.028 nM on human GLP-1 R (setting [2]), 0.035 nM at human GLP-1 R (setting [3]), 0.015 nM at human GIP R (setting [6]) and 0.017 nM at human GIP R (setting [7]). The values for the half-life in series [1] (setting [4]) and in series [1] (setting [5]) were 17.1 h and 15.9 h, respectively. Besides, the bioavailability in series [1] amounted to 83%. Moreover, in series [1] (sc, single s.c. bolus), the Tmax was found to be 8 h.

Turning to `CC[C@H](C)[C@H](NC(=O)[C@H](CO)NC(=O)[C@H](Cc1ccc(O)cc1)NC(=O)[C@H](CC(=O)O)NC(=O)[C@H](CO)NC(=O)[C@@H](NC(=O)[C@H](Cc1ccccc1)NC(=O)[C@@H](NC(=O)CNC(=O)[C@H](CCC(=O)O)NC(=O)C(C)(C)NC(=O)[C@@H](N)Cc1ccc(O)cc1)[C@@H](C)O)[C@@H](C)O)C(=O)N[C@@H](C)C(=O)N[C@@H](CC(C)C)C(=O)N[C@@H](CCC(=O)O)C(=O)N[C@@H](CCCCN)C(=O)N[C@@H](CCCCNC(=O)COCCOCCNC(=O)COCCOCCNC(=O)CC[C@H](NC(=O)CCCCCCCCCCCCCCCCCCC(=O)O)C(=O)O)C(=O)N[C@@H](C)C(=O)N[C@@H](CCC(N)=O)C(=O)N[C@@H](CCCNC(=N)N)C(=O)N[C@@H](C)C(=O)N[C@@H](Cc1ccccc1)C(=O)N[C@H](C(=O)N[C@@H](CCC(=O)O)C(=O)N[C@@H](Cc1c[nH]c2ccccc12)C(=O)N[C@@H](CC(C)C)C(=O)N[C@@H](CC(C)C)C(=O)N[C@@H](C)C(=O)N[C@@H](CCC(N)=O)C(=O)NCC(=O)N1CCC[C@H]1C(=O)N[C@@H](CO)C(=O)N[C@@H](CO)C(=O)NCC(=O)N[C@@H](C)C(=O)N1CCC[C@H]1C(=O)N1CCC[C@H]1C(=O)N1CCC[C@H]1C(=O)N[C@@H](CO)C(N)=O)C(C)C` [Compound 31] (H-Y[Aib]EGTFTSDYSIALEKK([AEEA-AEEA-γGlu-C20 diacid])AQRAFVEWLLAQGPSSGAPPPS-NH2), the EC50 at human GLP-1 R (setting [2]) worked out at 0.016 nM; on human GLP-1 R (setting [3]), 0.017 nM; on human GIP R (setting [6]), 0.007 nM; on human GIP R (setting [7]), 0.008 nM. Besides, the half-life in series [1] (setting [4]) was 11.7 h; in series [1] (setting [5]) it was 15.1 h. In addition, in series [1], the bioavailability amounted to 88%. Moreover, the Tmax in series [1] (sc, single s.c. bolus) is 8 h.

As for `CC[C@H](C)[C@H](NC(=O)[C@H](CO)NC(=O)[C@H](Cc1ccc(O)cc1)NC(=O)[C@H](CC(=O)O)NC(=O)[C@H](CO)NC(=O)[C@@H](NC(=O)[C@H](Cc1ccccc1)NC(=O)[C@@H](NC(=O)CNC(=O)[C@H](CCC(=O)O)NC(=O)[C@@H](C)NC(=O)[C@@H](N)Cc1ccc(O)cc1)[C@@H](C)O)[C@@H](C)O)C(=O)N[C@@H](C)C(=O)N[C@@H](CC(C)C)C(=O)N[C@@H](CCC(=O)O)C(=O)N[C@@H](CCCCN)C(=O)N[C@@H](CCCCNC(=O)COCCOCCNC(=O)COCCOCCNC(=O)CC[C@H](NC(=O)CCCCCCCCCCCCCCCCCCC(=O)O)C(=O)O)C(=O)N[C@@H](C)C(=O)N[C@@H](CCC(N)=O)C(=O)N[C@@H](CCCNC(=N)N)C(=O)N[C@@H](C)C(=O)N[C@@H](Cc1ccccc1)C(=O)N[C@H](C(=O)N[C@@H](CCC(=O)O)C(=O)N[C@@H](Cc1c[nH]c2ccccc12)C(=O)N[C@@H](CC(C)C)C(=O)N[C@@H](CC(C)C)C(=O)N[C@@H](C)C(=O)N[C@@H](CCC(N)=O)C(=O)NCC(=O)N1CCC[C@H]1C(=O)N[C@@H](CO)C(=O)N[C@@H](CO)C(=O)NCC(=O)N[C@@H](C)C(=O)N1CCC[C@H]1C(=O)N1CCC[C@H]1C(=O)N1CCC[C@H]1C(=O)N[C@@H](CO)C(N)=O)C(C)C` [Compound 32] (H-Y[dA]EGTFTSDYSIALEKK([AEEA-AEEA-γGlu-C20 diacid])AQRAFVEWLLAQGPSSGAPPPS-NH2), the EC50 on human GLP-1 R (setting [2]) worked out at 0.04 nM; on human GLP-1 R (setting [3]) it was 0.056 nM; on human GIP R (setting [6]), 0.016 nM; at human GIP R (setting [7]), 0.018 nM. The results for the half-life in series [1] (setting [4]) and in series [1] (setting [5]) were 17.4 h and 11.8 h, respectively. Moreover, the bioavailability in series [1] was determined as 100%. Also, the Tmax in series [1] (sc, single s.c. bolus) came to 8 h.
